Data as given in patent US5925372A, “Mixed solvent mutually enhanced transdermal therapeutic system” (Novartis Corporation, priority 1991, dated 1999).
Like-named read-outs stand apart in the source and are kept apart here.

How the values were obtained:
[1] = Fluxes of nitroglycerin through skin and ethylene vinyl acetate membranes (Table 2); type: in vitro ADME
[2] = Fluxes of nitroglycerin and ethanol through 32.8% vinyl acetate membrane plus skin with and without silicone face adhesive (Table 3)
From the text: (§1) In current-marketed transdermal devices, the adhesive is typically between 1.5 and 3 mils thick and is on the face of the device.

[3] = Fluxes through ethylene vinyl acetate membranes (Table 1); settings: for Nitroglycerin flux through ethylene vinyl acetate membrane: ethanol:water (7:3) reservoir saturated with nitroglycerin on lactose; for ^3 H2 O flux through ethylene vinyl acetate membrane: ethanol:water (7:3) reservoir
Experimental: (§2) For convenience purposes, this is measured by placing a portion of membrane or membrane/adhesive laminate in a diffusion cell and filling one side with a 70%, aqueous ethanol. After a period of time the amounts of water and alkanol that have crossed the membrane are determined. Typically, when measuring ethanol flux, the receiver side is water. When measuring water flux, either a) the donor side is ^3 H2 O and the receiver side is water or b) the donor side is water and the receiver side is air.

[4] = Flux of nitroglycerin and ethanol through epidermis, with and without membrane (FIGS. 5 and 6); settings: FIG. 6
From the text: FIG. 5 is a graph of the flux of nitroglycerin across epidermis versus the volume fraction of ethanol in the aqueous ethanol reservoir.
FIG. 6 is a graph of the flux of nitroglycerin versus the flux of ethanol for two different membrane thicknesses and epidermis as compared to epidermis alone.
These Examples are based on FIGS. 5 and 6. A 0.65 volume fraction of ethanol is used in the reservoir. The systems have a 10 cm^2 surface area, and use a polyester impermeable backing, a polyurethane membrane, and a silicone adhesive. […] Above a volume fraction of 0.8 ethanol, a safety hazard or transportation law infraction may be incurred with nitroglycerin unless the nitroglycerin is kept below 10%.

[5] = type: in vitro ADME, human; settings: 0.7 volume fraction of ethanol; active agent at saturation
From the text: FIG. 4 is a graph of the flux of (±) trans-1,3,4,4a,5,10b-hexahydro-4-propyl-2H-[1]benzopyrano[3,4-b]pyridin-9-ol monohydrochloride, an ionizable drug which is a dopamine autoreceptor agonist, across human epidermis from ethanol: water (7:3) versus pH of that aqueous ethanol solution. In aqueous solutions, the drug is […] charged below pH 6.5.
This Example is based on FIG. 4 in which the dopamine autoreceptor agonist, (±)trans-1,3,4,4a,5,10b-hexahydro-4-propyl-2H-[1]benzopyrano[3,4-b]pyridin-9-ol, an ionizable drug, permeates skin. For this drug the optimal pH of an ethanol:water donor which is 0.7 volume fraction of ethanol is in the range of 4. A microporous membrane such as a microporous polypropylene and a silicone adhesive may be used. The active agent is present at saturation.

[6] = cited from earlier work
[7] = cited from earlier work; remark: listed apart in the source
[8] = commercial estradiol system, cited from earlier work
[9] = Water and ethanol flux through the combined membrane adhesive laminate; settings: 32.8% vinyl acetate membrane plus 2 mil silicone face adhesive
Experimental: as §2, §1

[10] = cited from earlier work; remark: listed apart in the source
[11] = cited from earlier work; remark: listed apart in the source
[12] = Flux of progesterone across membrane and adhesive on human epidermis (FIG. 3); type: in vitro ADME; settings: 1 mil polyurethane membrane and silicone adhesive
From the text: FIG. 3 is a graph of the flux of progesterone across a membrane and adhesive on human epidermis versus volume fraction of ethanol in the aqueous ethanol reservoir.
(§3) This Example is based on FIGS. 1-3.

[13] = Steady-state flux of progesterone across the epidermis versus volume fraction of ethanol in donor (FIG. 1); type: in vitro ADME
From the text: as §3

[14] = Experimental: FIG. 2 is a graph of the steady-state flux of ethanol across human epidermis versus the volume fraction of ethanol in the donor solution.
This Example is based on FIGS. 1-3. […] The reservoir contains 1.7 ml of ethanol, 0.3 ml water, 200 mg of progesterone as the drug, and 2% Klucel as a gelling agent. […] A volume fraction of 0.85 is chosen to allow for the back flux of water and depletion of ethanol during the use of the system.

[15] = Charge state in aqueous solutions; type: physicochemical

O=[N+]([O-])OCC(CO[N+](=O)[O-])O[N+](=O)[O-] [Nitroglycerin, nitroglycerin]
Rate control of nitroglycerin permeation ([1]; 1 mil ethylene/vinyl acetate membranes): the skin controls the rate of nitroglycerin permeation | Improvement of nitroglycerin flux through skin over the best of previously disclosed systems ([1]; membranes of higher vinyl acetate content): ≤ 2 factor | Flux of nitroglycerin through skin and ethylene vinyl acetate membrane ([1]; vinyl acetate content 9%): 30 mcg/cm^2 /hr | Flux of nitroglycerin through skin and ethylene vinyl acetate membrane ([1]; vinyl acetate content 18%): 60 mcg/cm^2 /hr | Flux of nitroglycerin through skin and ethylene vinyl acetate membrane ([1]; vinyl acetate content 28%): 66 mcg/cm^2 /hr | Flux of nitroglycerin through skin and ethylene vinyl acetate membrane ([1]; vinyl acetate content 40%): 120 mcg/cm^2 /hr | Improvement of nitroglycerin flux by optimization of adhesive and membrane layers ([2]; 32.8% vinyl acetate membrane, peripheral versus 2 mil silicone face adhesive): more than a factor of two | Nitroglycerin flux ([2]; Membrane alone and skin, 32.8% vinyl acetate membrane, ethanol:water (85:15) reservoir): 82 ± 26 mcg/cm^2 /hr | Nitroglycerin flux ([2]; Membrane and adhesive (2 mil silicone face adhesive) and skin, 32.8% vinyl acetate, ethanol:water (85:15) reservoir): 37 ± 10 mcg/cm^2 /hr | Nitroglycerin flux ([2]; Skin alone from ethanol:water (70:30)): 85 ± 15 mcg/cm^2 /hr | Nitroglycerin flux ([2]; Skin alone without ethanol in donor): 15 ± 7 mcg/cm^2 /hr | Nitroglycerin flux through ethylene vinyl acetate membrane ([3]; vinyl acetate content 9%): 2.4 ± 0.3 mg/h | Nitroglycerin flux through ethylene vinyl acetate membrane ([3]; vinyl acetate content 18%): 5 ± 0.7 mg/h | Nitroglycerin flux through ethylene vinyl acetate membrane ([3]; vinyl acetate content 28%): 10 ± 0.5 mg/h | Nitroglycerin flux through ethylene vinyl acetate membrane ([3]; vinyl acetate content 40%): 21 ± 0.3 mg/h | Relation of nitroglycerin flux versus ethanol flux through skin and membrane adhesive laminates [4]: The nitroglycerin follows the ethanol through skin

CCCN1CCC[C@@H]2c3cc(O)ccc3OC[C@H]21 (racemic) [(±)trans-1,3,4,4a,5,10b-hexahydro-4-propyl-2H-[1]benzopyrano[3,4-b]pyridin-9-ol]
Optimal pH of ethanol:water donor for skin permeation [5]: ~4

O=C(O)c1ccccc1O [salicylic acid]
Flux of salicylic acid through human skin, neat versus aqueous ethanol [6]: neat ethanol increases skin permeation better than aqueous ethanol

C#C[C@]1(O)CC[C@H]2[C@@H]3CCC4=CC(=O)CC[C@@H]4[C@H]3CC[C@@]21CC [levonorgestrel]
Flux of levonorgestrel through rat skin, neat versus aqueous ethanol [7]: neat ethanol increases skin permeation better than aqueous ethanol

O [water]
Water permeability of rate-limiting membrane [8]: relatively impermeable to water

[3H]O[3H] [^3 H2 O, tritiated water]
Dependence of permeation on vinyl acetate content ([3]; until reservoir composition of ethanol and water is delivered to skin surface): increase with vinyl acetate content | ^3 H2 O flux through ethylene vinyl acetate membrane ([3]; vinyl acetate content 9%): 0.5 mg/h | ^3 H2 O flux through ethylene vinyl acetate membrane ([3]; vinyl acetate content 18%): 4 ± 0.3 mg/h | ^3 H2 O flux through ethylene vinyl acetate membrane ([3]; vinyl acetate content 28%): 17 ± 3 mg/h | ^3 H2 O flux through ethylene vinyl acetate membrane ([3]; vinyl acetate content 40%): 63 ± 9 mg/h | Tritiated water flux through combined membrane adhesive laminate [9]: smaller than the range disclosed by this invention

C[C@]12CC[C@@H]3c4ccc(O)cc4CC[C@H]3[C@@H]1CC[C@@H]2O [estradiol]
Skin permeation of estradiol from neat ethanol versus aqueous ethanol donor solutions [10]: skin permeation from neat ethanol is as good or better than from aqueous ethanol donor solutions | Flux of estradiol through hairless mouse skin, neat versus aqueous ethanol [11]: neat ethanol increases skin permeation better than aqueous ethanol

CC(=O)[C@H]1CC[C@H]2[C@@H]3CCC4=CC(=O)CC[C@]4(C)[C@H]3CC[C@]12C [progesterone]
Volume fraction of ethanol at optimum of skin permeation with membrane and adhesive [12]: ~0.7 volume fraction of ethanol | Progesterone flux across epidermis from optimized aqueous ethanol reservoir ([13]; compared to both neat water and neat ethanol): large increase in the flux | Volume fraction of ethanol at which progesterone flux through skin is optimized ([13]; not including the drug or gelling agent): 0.4-0.85 volume fraction of ethanol

CCO [Ethanol, ethanol]
Ethanol permeability of rate-limiting membrane ([8]; neat ethanol gel reservoir): ~400 mcg/cm^2 /hr | Dependence of permeation on vinyl acetate content [3]: increase with vinyl acetate content | Volume fraction of ethanol at which ethanol flux through skin is optimized [14]: 0.4-0.85 volume fraction of ethanol

CCCN1CCC[C@@H]2c3cc(O)ccc3OC[C@H]21.Cl (racemic) [(±) trans-1,3,4,4a,5,10b-hexahydro-4-propyl-2H-[1]benzopyrano[3,4-b]pyridin-9-ol monohydrochloride]
pH below which the drug is negatively charged in aqueous solutions [15]: < 6.5
